Experiment in all cases: High-throughput screening, Ub-RhoMP, single dose 1.25 µM
Holding throughout (type): biochemical

The target of one assay is T1, USP24 (Homo sapiens, UniProt Q9UPU5).
T1 construct: (1-2620); His10; purchased Biotechne E-616
Conditions: individual amine building block (plate NCN-5); read-out: BB %inhibition USP24. On the procedure: (§1) Since the in‐plate synthesis was conducted in 1536‐well Echo plates, the compounds could readily be transferred from these plates into 1536‐well assay plates using acoustic liquid dispensing (Figure 2a) and subjected to HTS. We screened the whole 7536 compound library against a panel of twelve enzymes, including three DUBs from the UCH family, two DUBs from the OTU family, five DUBs from the USP family, plus ISG15 protease USP18, and SUMO protease SENP1. Each compound was tested at a single dose of 1.25 µM, assuming full conversion (10 mM in DMSO of the formed products) during the in‐plate synthesis, using the fluorogenic assay described above. […] The compounds are sorted by the amine building blocks (BB1‐16), and within each BB, sorted by carboxylic acid (CA1‐471), thereby providing a comprehensive and systematic overview of the overall inhibition by each BB and CA combination. Some interesting patterns can be obtained from this map. […] Indeed, BB10 is the privileged scaffold for UCHL1 as it originates from UCHL1 inhibitor 5 (Figure 1). […] On the other hand, OTUD1 and USP32 show a much higher hit rate, and this is even more pronounced for USP30 and ISG15 protease mUSP18, each showing many active compounds distributed over several BB's.
(§2) Purified recombinant enzymes used in this study
(§3) High-throughput screening
(§4) The screens were performed at room temperature in “flat bottom, non-treated, black […]
(§5) µM. The compounds (10 nL each) were transferred from the 1 mM daughter plates to the […]
(§6) Four wells containing DMSO
(§7) (10 nL) and four wells containing NEM (10 mM final concentration) were used in each plate […]
(§8) solution (1.33x final concentration) was added to each well, followed by incubation for 30 min.
(§9) Next, 2 µL of a substrate solution (4x final concentration) was added to each well (Ub-RhoMP[2]
(§10) After 1h or 2h incubation the
(§11) The percentage inhibition was calculated for each well using the […]
(§12) Where FIx is the fluorescence intensity of each well, FIpos is the average fluorescence intensity of the positive (NEM) control wells, and FIneg is the average fluorescence intensity of the negative (DMSO) control wells.

A further assay addresses T2, USP32 (Homo sapiens, UniProt Q8NFA0).
T2 construct: (1-1604); His-tag (N); made in house
The note with it: individual amine building block (plate NCN-5); read-out: BB %inhibition USP32. On the procedure: as §1, §2, §3, §4, §5, §6, §7, §8, §9, §10, §11, §12

For a further assay, the target named is T3, UCHL5 (Homo sapiens, UniProt Q9Y5K5).
T3 construct: (1-329); purchased Novus biochemicals NBP1-72315
T3 sequence (Q9Y5K5 1-329): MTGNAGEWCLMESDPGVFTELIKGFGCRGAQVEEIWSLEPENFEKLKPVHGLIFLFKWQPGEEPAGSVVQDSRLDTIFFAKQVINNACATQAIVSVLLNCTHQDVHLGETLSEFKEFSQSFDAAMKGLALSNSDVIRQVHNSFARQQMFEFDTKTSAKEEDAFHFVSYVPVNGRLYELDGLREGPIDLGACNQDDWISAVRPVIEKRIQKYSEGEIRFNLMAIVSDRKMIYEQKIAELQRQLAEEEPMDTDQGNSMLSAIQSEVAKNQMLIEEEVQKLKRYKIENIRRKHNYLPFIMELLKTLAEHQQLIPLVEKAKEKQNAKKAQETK
The note with it: individual amine building block (plate NCN-5); read-out: BB %inhibition UCHL5. How it is done:
as §1, §2, §3, §4, §5, §6, §7, §8, §9, §10, §11, §12

The target in the next assay is T4, UCHL3 (Homo sapiens, UniProt P15374).
T4 construct: (1-230); made in house
T4 sequence (P15374 1-230): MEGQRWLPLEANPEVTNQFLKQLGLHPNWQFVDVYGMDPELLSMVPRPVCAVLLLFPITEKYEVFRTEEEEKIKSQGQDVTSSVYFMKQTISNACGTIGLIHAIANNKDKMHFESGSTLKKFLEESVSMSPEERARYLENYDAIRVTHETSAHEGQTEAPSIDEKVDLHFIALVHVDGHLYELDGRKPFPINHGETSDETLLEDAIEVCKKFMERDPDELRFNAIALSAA
The note with it: individual amine building block (plate NCN-5); read-out: BB %inhibition UCHL3. How it is done:
as §1, §2, §3, §4, §5, §6, §7, §8, §9, §10, §11, §12

The next assay deals with T5, UCHL1 (Homo sapiens, UniProt P09936).
T5 construct: (1-223); made in house
T5 sequence (P09936 1-223): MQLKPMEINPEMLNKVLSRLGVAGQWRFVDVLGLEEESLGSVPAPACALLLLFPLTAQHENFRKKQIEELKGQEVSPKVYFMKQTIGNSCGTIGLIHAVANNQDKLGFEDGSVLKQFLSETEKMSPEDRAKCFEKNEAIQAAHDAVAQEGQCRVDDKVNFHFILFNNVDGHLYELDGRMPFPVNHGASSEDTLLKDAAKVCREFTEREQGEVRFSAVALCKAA
The note with it: individual amine building block (plate NCN-5); read-out: BB %inhibition UCHL1. On the procedure: as §1, §2, §3, §4, §5, §6, §7, §8, §9, §10, §11, §12

For a further assay, the target named is USP16 (Homo sapiens, UniProt Q9Y5T5). Details: (22-823); His-tag (N); made in house. The note with it: individual amine building block (plate NCN-5). How it is done: as §1, §2, §3, §4, §5, §6, §7, §8, §9, §10, §11, §12
Chain of USP16 (Q9Y5T5 22-823): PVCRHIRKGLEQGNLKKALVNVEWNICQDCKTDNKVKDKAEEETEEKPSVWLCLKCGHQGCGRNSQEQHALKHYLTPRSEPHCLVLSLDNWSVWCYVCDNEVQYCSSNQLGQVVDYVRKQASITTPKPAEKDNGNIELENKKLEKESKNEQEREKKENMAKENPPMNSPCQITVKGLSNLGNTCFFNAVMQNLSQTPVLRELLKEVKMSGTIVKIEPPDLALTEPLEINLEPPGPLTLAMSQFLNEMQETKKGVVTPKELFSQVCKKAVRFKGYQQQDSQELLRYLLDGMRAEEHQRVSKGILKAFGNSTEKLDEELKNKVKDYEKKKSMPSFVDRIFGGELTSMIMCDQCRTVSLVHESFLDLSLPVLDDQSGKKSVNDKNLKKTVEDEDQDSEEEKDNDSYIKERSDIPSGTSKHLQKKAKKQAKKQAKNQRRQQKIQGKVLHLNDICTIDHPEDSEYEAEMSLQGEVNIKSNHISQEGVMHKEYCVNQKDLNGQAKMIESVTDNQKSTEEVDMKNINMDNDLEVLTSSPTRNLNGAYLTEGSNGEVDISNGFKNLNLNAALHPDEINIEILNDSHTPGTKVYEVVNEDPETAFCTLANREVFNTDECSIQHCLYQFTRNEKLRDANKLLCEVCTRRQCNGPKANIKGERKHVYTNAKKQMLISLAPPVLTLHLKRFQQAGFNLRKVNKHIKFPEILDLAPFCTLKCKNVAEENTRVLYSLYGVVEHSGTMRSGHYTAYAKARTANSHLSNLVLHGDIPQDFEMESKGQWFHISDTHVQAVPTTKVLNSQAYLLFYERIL

Each structure is given as a SMILES string.

T2 sequence (Q8NFA0 whole entry): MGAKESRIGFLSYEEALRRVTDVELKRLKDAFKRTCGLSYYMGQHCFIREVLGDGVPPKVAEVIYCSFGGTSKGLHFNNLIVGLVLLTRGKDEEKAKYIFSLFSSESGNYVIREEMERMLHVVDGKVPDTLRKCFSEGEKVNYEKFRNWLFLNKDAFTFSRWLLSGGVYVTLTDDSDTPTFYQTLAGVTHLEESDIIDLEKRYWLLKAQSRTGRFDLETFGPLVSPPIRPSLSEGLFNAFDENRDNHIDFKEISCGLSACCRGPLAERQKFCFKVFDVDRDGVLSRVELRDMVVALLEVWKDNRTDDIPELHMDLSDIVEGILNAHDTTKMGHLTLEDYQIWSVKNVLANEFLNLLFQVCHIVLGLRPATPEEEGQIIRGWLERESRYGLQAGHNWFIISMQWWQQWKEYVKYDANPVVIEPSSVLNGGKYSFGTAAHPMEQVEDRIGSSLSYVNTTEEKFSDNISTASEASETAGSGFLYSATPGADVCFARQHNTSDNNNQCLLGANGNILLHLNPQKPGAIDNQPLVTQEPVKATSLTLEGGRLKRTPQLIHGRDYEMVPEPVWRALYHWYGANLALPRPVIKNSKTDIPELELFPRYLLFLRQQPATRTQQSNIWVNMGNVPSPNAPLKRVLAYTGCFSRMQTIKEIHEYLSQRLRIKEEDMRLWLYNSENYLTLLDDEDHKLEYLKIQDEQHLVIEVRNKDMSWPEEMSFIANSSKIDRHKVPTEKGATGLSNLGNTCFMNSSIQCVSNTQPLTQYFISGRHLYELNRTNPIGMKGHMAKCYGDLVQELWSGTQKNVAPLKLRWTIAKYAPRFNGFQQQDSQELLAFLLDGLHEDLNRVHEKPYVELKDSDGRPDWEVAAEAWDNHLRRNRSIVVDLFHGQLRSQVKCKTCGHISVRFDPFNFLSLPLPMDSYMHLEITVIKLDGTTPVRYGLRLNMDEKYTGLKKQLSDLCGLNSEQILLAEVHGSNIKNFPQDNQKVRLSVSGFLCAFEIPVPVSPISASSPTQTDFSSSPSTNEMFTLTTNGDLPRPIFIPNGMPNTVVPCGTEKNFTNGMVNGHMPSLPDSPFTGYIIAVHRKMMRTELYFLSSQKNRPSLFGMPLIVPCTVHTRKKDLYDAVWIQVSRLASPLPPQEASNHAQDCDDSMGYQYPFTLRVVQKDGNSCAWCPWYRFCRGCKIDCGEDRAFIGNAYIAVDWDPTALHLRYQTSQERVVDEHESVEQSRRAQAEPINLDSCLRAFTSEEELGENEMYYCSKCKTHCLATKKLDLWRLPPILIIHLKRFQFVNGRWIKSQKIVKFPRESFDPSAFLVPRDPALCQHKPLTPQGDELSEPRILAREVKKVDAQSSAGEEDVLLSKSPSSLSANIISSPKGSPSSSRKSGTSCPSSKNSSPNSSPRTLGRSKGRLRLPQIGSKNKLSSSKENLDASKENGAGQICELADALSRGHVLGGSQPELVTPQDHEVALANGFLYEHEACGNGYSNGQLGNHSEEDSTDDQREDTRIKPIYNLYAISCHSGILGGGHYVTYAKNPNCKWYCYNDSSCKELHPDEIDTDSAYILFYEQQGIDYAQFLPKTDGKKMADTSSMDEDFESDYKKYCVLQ
T1 sequence (Q9UPU5 whole entry): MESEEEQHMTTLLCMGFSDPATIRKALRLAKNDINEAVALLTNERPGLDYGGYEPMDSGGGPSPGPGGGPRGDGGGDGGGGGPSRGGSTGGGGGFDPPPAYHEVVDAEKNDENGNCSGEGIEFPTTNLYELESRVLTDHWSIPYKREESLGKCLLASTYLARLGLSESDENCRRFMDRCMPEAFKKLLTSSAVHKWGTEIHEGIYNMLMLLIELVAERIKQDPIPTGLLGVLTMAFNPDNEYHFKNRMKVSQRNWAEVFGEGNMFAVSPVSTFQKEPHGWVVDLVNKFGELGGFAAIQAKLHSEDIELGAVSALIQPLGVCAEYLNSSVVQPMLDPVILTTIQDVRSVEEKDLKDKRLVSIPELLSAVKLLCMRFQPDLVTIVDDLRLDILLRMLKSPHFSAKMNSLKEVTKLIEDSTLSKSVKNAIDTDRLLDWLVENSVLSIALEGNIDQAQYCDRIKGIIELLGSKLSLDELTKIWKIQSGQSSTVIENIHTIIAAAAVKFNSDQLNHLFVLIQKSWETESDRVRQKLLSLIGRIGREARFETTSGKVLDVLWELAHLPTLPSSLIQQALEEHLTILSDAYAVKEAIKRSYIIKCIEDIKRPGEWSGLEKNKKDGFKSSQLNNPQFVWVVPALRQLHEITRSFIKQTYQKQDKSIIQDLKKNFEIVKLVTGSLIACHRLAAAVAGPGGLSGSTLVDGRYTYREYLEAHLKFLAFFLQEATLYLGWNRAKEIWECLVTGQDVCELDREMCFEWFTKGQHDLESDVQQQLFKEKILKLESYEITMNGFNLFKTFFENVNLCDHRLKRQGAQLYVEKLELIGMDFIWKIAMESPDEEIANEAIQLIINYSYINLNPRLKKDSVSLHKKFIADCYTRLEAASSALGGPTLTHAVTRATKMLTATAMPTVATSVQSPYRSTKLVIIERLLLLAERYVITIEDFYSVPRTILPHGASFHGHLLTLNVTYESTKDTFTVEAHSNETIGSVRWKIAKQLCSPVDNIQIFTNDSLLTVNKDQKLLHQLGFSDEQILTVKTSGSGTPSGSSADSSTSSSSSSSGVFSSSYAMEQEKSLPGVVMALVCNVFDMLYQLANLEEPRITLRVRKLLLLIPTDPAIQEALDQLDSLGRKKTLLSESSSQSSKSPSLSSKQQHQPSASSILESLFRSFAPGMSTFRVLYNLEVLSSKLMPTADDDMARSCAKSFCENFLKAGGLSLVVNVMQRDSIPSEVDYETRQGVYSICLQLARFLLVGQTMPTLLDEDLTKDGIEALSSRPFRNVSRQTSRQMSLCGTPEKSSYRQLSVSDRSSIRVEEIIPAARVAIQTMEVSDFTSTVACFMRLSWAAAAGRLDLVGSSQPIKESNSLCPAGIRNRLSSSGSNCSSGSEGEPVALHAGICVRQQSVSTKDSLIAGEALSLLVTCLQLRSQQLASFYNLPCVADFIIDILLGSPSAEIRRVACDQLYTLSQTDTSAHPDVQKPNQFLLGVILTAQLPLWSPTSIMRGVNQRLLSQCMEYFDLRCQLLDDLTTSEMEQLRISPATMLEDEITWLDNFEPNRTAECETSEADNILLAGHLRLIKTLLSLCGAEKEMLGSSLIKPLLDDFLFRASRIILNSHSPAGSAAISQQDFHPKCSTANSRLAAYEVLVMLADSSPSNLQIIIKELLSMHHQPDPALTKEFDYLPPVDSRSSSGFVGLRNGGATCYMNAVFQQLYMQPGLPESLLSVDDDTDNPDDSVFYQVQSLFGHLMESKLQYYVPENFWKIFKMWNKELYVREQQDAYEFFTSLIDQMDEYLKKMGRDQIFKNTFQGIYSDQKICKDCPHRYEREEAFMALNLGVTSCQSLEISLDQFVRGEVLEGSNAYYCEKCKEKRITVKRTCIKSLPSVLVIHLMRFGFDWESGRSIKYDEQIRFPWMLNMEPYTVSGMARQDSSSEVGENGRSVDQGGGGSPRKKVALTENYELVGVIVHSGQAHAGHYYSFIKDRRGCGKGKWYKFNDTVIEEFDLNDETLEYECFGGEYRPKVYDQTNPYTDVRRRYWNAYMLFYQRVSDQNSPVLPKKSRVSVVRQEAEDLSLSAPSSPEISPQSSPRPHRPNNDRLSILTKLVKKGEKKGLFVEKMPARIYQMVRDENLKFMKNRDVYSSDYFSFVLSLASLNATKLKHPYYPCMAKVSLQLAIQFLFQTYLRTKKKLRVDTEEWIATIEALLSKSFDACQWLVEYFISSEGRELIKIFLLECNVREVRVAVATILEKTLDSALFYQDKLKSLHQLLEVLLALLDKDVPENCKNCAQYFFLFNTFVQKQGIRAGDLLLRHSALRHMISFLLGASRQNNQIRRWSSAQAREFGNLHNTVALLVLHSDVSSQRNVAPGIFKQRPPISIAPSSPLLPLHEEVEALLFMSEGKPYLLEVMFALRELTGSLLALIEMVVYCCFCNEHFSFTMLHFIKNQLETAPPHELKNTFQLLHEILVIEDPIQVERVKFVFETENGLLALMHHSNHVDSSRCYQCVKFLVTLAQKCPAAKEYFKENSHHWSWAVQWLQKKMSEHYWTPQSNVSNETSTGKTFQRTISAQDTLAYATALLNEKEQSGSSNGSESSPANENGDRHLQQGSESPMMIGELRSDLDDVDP

One may read the inhibition as the relative decrease from the control value, in per cent. With `N#CN1CCC[C@H](N)C1` [BB8], the inhibition at 1.25 µM at USP24 is -0.279%; on USP32, 1.3%; on UCHL5, 4.6%; at UCHL3 it was -2.2%; at UCHL1 it was 1%. Besides, the “BB %inhibition USP16” value at USP16 was -0.5%.

On to `N#CN1CC[C@@H](NC(=O)c2ccc(CN)cc2)C1` [BB9], for which the inhibition at 1.25 µM at USP24 was 0.33%; on USP32 it was 2.8%; at UCHL5, -9.9%; on UCHL3, -2.3%; at UCHL1, -0.3%. The “BB %inhibition USP16” value at USP16 is listed as -1.3%.

Consider `N#CN1CC[C@H](C(=O)Nc2nc3c(s2)CNCC3)C1` [BB10], for which the inhibition at 1.25 µM at USP24 is -1.8%; at USP32, 1.5%; on UCHL5 it was -11%; on UCHL3, -5.1%; at UCHL1, roughly 35%. Also, the “BB %inhibition USP16” value at USP16 is listed as -2.4%.

Turning to `N#CN1CC[C@H](CN)C1` [BB11], the inhibition at 1.25 µM was -6.5% at USP24; -1.5% on USP32; -7.1% at UCHL5; -5.7% at UCHL3; -2.6% at UCHL1. In addition, the “BB %inhibition USP16” value at USP16 was -4.8%.

On to `N#CN1C[C@@H]2C[C@H]1CN2` [BB12], for which the inhibition at 1.25 µM is -3.7% at USP24; -1.2% on USP32; -5.3% at UCHL5; -4.6% at UCHL3; -1.2% at UCHL1. Also, the “BB %inhibition USP16” value at USP16 is -5.0%.

For the compound `N#CN1C[C@H](N)[C@@H](O)C1` [BB13], the inhibition at 1.25 µM at USP24 was determined as 5.7%; on USP32 it was 1.1%; at UCHL5 it was 0.225%; at UCHL3, 8%; at UCHL1 it was 0.8%. In addition, the “BB %inhibition USP16” value at USP16 was determined as 4.4%.

As to `N#CN1CCC2(CCNC2)C1` (stereo not drawn) [BB14], the inhibition at 1.25 µM on USP24 is 3.8%; at USP32, 0.344%; at UCHL5, -1.4%; at UCHL3 it was 8.6%; on UCHL1 it was 1%. Also, the “BB %inhibition USP16” value on USP16 was 5.9%.

For `N#CN1C[C@@H](F)[C@@H](N)C1` [BB15], the inhibition at 1.25 µM at USP24 was 5.6%; at USP32 it was -3.1%; on UCHL5, -6%; on UCHL3, 1.4%; on UCHL1, 1%. In addition, the “BB %inhibition USP16” value at USP16 is recorded as -1.1%.

Take `N#CN1CCC(n2cc(N)cn2)CC1` [BB16]: the inhibition at 1.25 µM on USP24 is 9.2%; at USP32 it was -6.1%; at UCHL5 it was -7.7%; at UCHL3, 2.3%; on UCHL1 it was 1.3%. In addition, on USP16, the “BB %inhibition USP16” value is given as -0.846%.
